From US12497610B2, “Functional genomics using CRISPR-CAS systems for saturating mutagenesis of non-coding elements, compositions, methods, libraries and applications thereof” (THE BROAD INSTITUTE, INC., priority 2015, dated 2025)

System: human BCL11A erythroid enhancer
Assay: Tiled pooled CRISPR-Cas9 screen for in situ functional mapping of the human BCL11A erythroid enhancer (HbF-high/HbF-low sort, sgRNA deep sequencing)
Type: cell-based
Settings: for Enrichment Score: HbF enrichment, human library NGG and NGG RC sgRNAs filtered for enrichment score >0.259; for Dropout Score: human library sgRNAs that produced HbF enrichment over 0.259
Summary of the method: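 HUDEP-2 cells stably expressing Cas9 transduced at low multiplicity with tiled sgRNA library covering +55/+58/+62 DHS, selected with blasticidin/puromycin, expanded one week then differentiated one week. Top and bottom 10% HbF-stained cells FACS-sorted; sgRNA representation determined by deep sequencing of genomic DNA.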

Row | Substance | Enrichment Score | Dropout Score
1 | BCL_00261_H_exon2 (guide CACAAACGGAAACAATGCAANGG; listed as DNA, chemistry not given here) | 3.329 | −2.543
2 | BCL_01834_H_D62 (guide TATCAGAAGGGAACTGTTTGNGGRC; listed as DNA, chemistry not given here) | 0.4029 | 0.02327
3 | BCL_01684_H_D58 (guide ACAACCTCCTTGTTTACAGANGGRC; listed as DNA, chemistry not given here) | 0.4945 | 0.3674
4 | BCL_00233_H_D62 (guide CAGGAGGATCACCTGAGGTCNGG; listed as DNA, chemistry not given here) | 0.6113 | −9.202
5 | BCL_00073_H_D55 (guide AGCACACAAGATGCACACCCNGG; listed as DNA, chemistry not given here) | 0.4199 | −0.8372
6 | BCL_00160_H_D58 (guide TCAGGGGGAGGCAAGTCAGTNGG; listed as DNA, chemistry not given here) | 0.3294 | −0.318
7 | BCL_00008_H_D55 (guide TGAAACCAAGCTTCCTCTGCNGG; listed as DNA, chemistry not given here) | 0.2741 | −0.2303
8 | BCL_00250_H_exon2 (guide GAACCAGACCACGGCCCGTTNGG; listed as DNA, chemistry not given here) | 1.581 | −0.6847
9 | BCL_01631_H_D58 (guide ATTAGGGTGGGGGCGTGGGTNGGRC; listed as DNA, chemistry not given here) | 0.4098 | −0.1615
10 | BCL_01665_H_D58 (guide TGTAACTAATAAATACCAGGNGGRC; listed as DNA, chemistry not given here) | 0.4418 | −0.6516
11 | BCL_01638_H_D58 (guide CATCGGTGGCCGTTTGCCCANGGRC; listed as DNA, chemistry not given here) | 0.635 | −0.5928
12 | BCL_00251_H_exon2 (guide GGCCCGTTGGGAGCTCCAGANGG; listed as DNA, chemistry not given here) | 1.911 | −1.236
13 | BCL_02010_H_exon2 (guide CCCCTTCTGGAGCTCCCAACNGGRC; listed as DNA, chemistry not given here) | 0.5003 | −0.1463
14 | BCL_00255_H_exon2 (guide ATCATGACCTCCTCACCTGTNGG; listed as DNA, chemistry not given here) | 1.703 | −2.497
15 | BCL_00089_H_D55 (guide TCCTGGTACCAGGAAGGCAANGG; listed as DNA, chemistry not given here) | 0.3559 | −0.7862
16 | BCL_00090_H_D55 (guide CCTGGTACCAGGAAGGCAATNGG; listed as DNA, chemistry not given here) | 0.4651 | −0.5292
17 | BCL_00257_H_exon2 (guide TGCCAGATGAACTTCCCATTNGG; listed as DNA, chemistry not given here) | 1.945 | −1.9609
18 | BCL_01826_H_D62 (guide TTTGCTCTTCTCCAGGGTGTNGGRC; listed as DNA, chemistry not given here) | 0.4003 | −0.3386
19 | BCL_00265_H_exon2 (guide GCATCCAATCCCGTGGAGGTNGG; listed as DNA, chemistry not given here) | 1.291 | −0.8895
20 | BCL_01495_H_D55 (guide AGGGAGAAATGAGACAAAAGNGGRC; listed as DNA, chemistry not given here) | 0.2643 | −0.4932
